Experimental data as given in publication PMC5712521, “Dendrogenin A drives LXR to trigger lethal autophagy in cancers” (Nature Communications, 2017).

Experiments:
[1] = test system: HL60 tumors; experiment: Subcutaneous HL60 tumor xenograft; format: in vivo, mice
Experimental: Exponentially growing cells were harvested, washed twice in PBS then resuspended in PBS. SKMEL-28, shSKMEL-28 clones (5 × 10^6 cells) and B16F10 (3 × 10^5) cells were injected subcutaneously (s.c.) into the flank of nude mice. HL60, KG1 and shKG1-clones (5 × 10^6) were inoculated s.c. into the flanks of NOD/SCID mice. When tumors were palpable, animals (n = 10–20 mice per group, as indicated) were randomized to receive either DDA (20 mg/kg) intraperitoneally (i.p.) or 40 mg/kg by oral gavage (p.o), once a day, or vehicle solvent for the indicated time. Animals were examined daily and body weights were measured twice a week. In all experiments, tumor volume was determined by direct measurement with a caliper and was calculated using the formula (width^2 × length)/2. At the end of experiments, mice were sacrificed and tumors were excised and divided for intra-tumoral DDA quantification, immunoblotting, or immunohistochemistry analyses. […]
(n=16- 20 mice/group) engrafted with KG1 cells or HL60 cells were treated with DDA (20 mg/kg/day, i.p.) or solvent vehicle (control). Tumor growth was monitored over time and was analyzed for significance using repeated measures ANOVA (***P<0.001). The mean tumor volumes ± SEM are shown. e Average tumor weight at the end of the experiments in d. *P<0.5, **P<0.01, ANOVA. f Mean tumor volumes measured at the end of the experiments for HL60 and KG1 graf ted into NOD/SCID or NMRI-Fo x1 -nude mice treated with DDA (40 mg/kg/day, p.o. or 20 mg/kg/day, i.p.) or solvent vehicle (control) (n=10- 20 mice per group). Values represent the means ± S.E.M. (**P<0.01, ***P<0.001, ANOVA). g Histochemical analysis of the expression of LC3 and P62 in HL60 tumor sections isolated from NOD/SCID mice treated or not with DDA (20 mg/kg/day, i.p.). h Quantification of LC3 punctate cells in shCTRL and shLXRβ KG1 tumors. i Quantification of DDA levels in tumors 4 h after the final administration of DDA. j Box plot of TCGA RNA-seq data from patients with melanoma showing that LXRβ is the predominant LXR isoform expressed. […]

[2] = test system: HL60 cells; experiment: HL60 cells orthotopically engrafted (i.v.) into NSG mice; format: in vivo; conditions: for reduction of the number of HL60 cells in bone marrow and brain / reduction of HL60 cell viability in bone marrow and brain: 16 days; for reduction of HL60 cell viability in bone marrow and brain: Annexin-V
Experimental: The engraftment of human primary AML cells was performed on NSG mice. Briefly, human primary AML cells, HL60 cells or normal CD34+ cells were resuspended in PBS, and 0.8 × 10^6 to 2 × 10^6 viable trypan blue-negative cells were injected intravenously into NSG mice that had been previously irradiated for 24 h with 2.25 Gy. […] The viability of AML cells was established by quantifying the percentage of hCD45+CD33+Annexin-V- cells.

[3] = test system: primary AML cells; experiment: Patient-derived primary AML cells engrafted into NSG mice; format: in vivo; conditions: three patients; 20 mg/kg/d i.p., 19 days
Experimental: The engraftment of human primary AML cells was performed on NSG mice. Briefly, human primary AML cells, HL60 cells or normal CD34+ cells were resuspended in PBS, and 0.8 × 10^6 to 2 × 10^6 viable trypan blue-negative cells were injected intravenously into NSG mice that had been previously irradiated for 24 h with 2.25 Gy. Two and a half weeks after the injection of human cells, mice were treated with DDA (20 mg/kg/day by IP injection) or vehicle as control for 2, 3 weeks, after which the engraftment of human AML and normal hematopoietic cells was measured in the bone marrow, spleen and brain by quantifying the percentage of hCD45+CD33+ cells by flow cytometry. The viability of AML cells was established by quantifying the percentage of hCD45+CD33+Annexin-V- cells.

[4] = in vivo; design: species or system NSG mice; conditions: mouse, 20 mg/kg
Experimental: Administration R oute p.o. i. p. i. v.
T 1/2 distribution (h) - - 0.11*** […]
Bars represent S.E.M. ( ***P<0.001, **P<0.01, t test).
(also on this page, place not known: plasma times treatment mice administration plasma times treatment mice administration mg/kg mg/kg Summary pharmacokinetic parameters mice. were measured daily administration mg/kg days. (***P<0.001, mg/kg DDA in plasma (p.o.) (p.o.) DDA in plasma (µM) i.p. i.v. (mg/kg) 20 T1/2 0.1 T1/2 elimination 1.0 T1/2 - Bioavailability (%EP) (µM) 370 Tmax 0.002 marrow 0.01 0.1 1 10 Control DDA DDA level (µM) ***)

With CC(C)CCC[C@@H](C)[C@H]1CC[C@H]2[C@@H]3C[C@@H](NCCc4cnc[nH]4)[C@@]4(O)C[C@@H](O)CC[C@]4(C)[C@H]3CC[C@]12C [DDA, Dendrogenin A] the “Tumor volume at the end of the experiment” value (“Tumor volume at the end” below) ([1]; NMRI-Fox1-nude mice, DDA i.p. 20mg/kg/d (control 726±81)) was 203±72 mm3, the “Tumor volume at the end” value ([1]; NOD/SCID mice, DDA i.p. 20mg/kg/d (control 2348±204)) was 880±101 mm3 and the “Tumor volume at the end” value ([1]; NOD/SCID mice, DDA p.o. 40mg/kg/d (control 2348±204)) was 812±66 mm3. For the same compound, the “reduction of the number of HL60 cells in bone marrow and brain” value ([2]; 20 mg/kg/day i.p.) was 60.5 ± 11%, the “reduction of HL60 cell viability in bone marrow and brain” value ([2]; 20 mg/kg/day i.p.) was 21.9 ± 6% and the “reduction of the number of HL60 cells in bone marrow and brain” value ([2]; 40 mg/kg/day p.o.) was 47 ± 9%. The “reduction of HL60 cell viability in bone marrow and brain” value ([2]; 40 mg/kg/day p.o.) was 17.3 ± 5%, the “overall survival of HL60-engrafted mice” value ([2]; 40 mg/kg/day p.o., after disease establishment) was “significantly improved the survival” and the “change in AML cell viability in bone marrow and spleen compared to controls” value [3] was −19.6 ± 7.6%. The “change in number of AML cells in bone marrow and spleen compared to controls” value [3] was −57 ± 15%, the Cmax ([4]; NSG, ip) was 6.1 ± 0.95 µM and the Plasma clearance ([4]; NSG, ip) was 28 mL/min/kg. The Tmax ([4]; NSG, ip) was 2 h, the half-life ([4]; NSG, ip, T1/2 absorption) was 19 h and the half-life ([4]; NSG, ip, T1/2 elimination) was 0.9 h. For the same compound, the Cmax ([4]; NSG, iv) was 370 µM, the Tmax ([4]; NSG, iv) was 0.002 h and the clearance ([4]; NSG, iv) was 27 mL/min/kg. It also gave a half-life ([4]; NSG, iv, T1/2 distribution) of 0.1 h, a half-life ([4]; NSG, iv, T1/2 elimination) of 0.6 h and a Cmax ([4]; NSG, po) of 5.05 µM. It also gave a Plasma clearance ([4]; NSG, po) of 26.2 mL/min/kg, a Tmax ([4]; NSG, po) of 3 h and a half-life ([4]; NSG, po, T1/2 absorption) of 43 h. It also gave a half-life ([4]; NSG, po, T1/2 elimination) of 1 h and a Bioavailability ([4]; iv) of 100 % EP.
